Results reported in patent US20180355441A1, “VISUAL DETECTION OF PLATINATED DNA LESIONS FROM A CLICKABLE CISPLATIN PROBE USED AS DIAGNOSTIC TOOL OR TO IDENTIFY SYNERGISTIC TREATMENTS” (CENTRE NATIONAL DE LA RECHERCHE SCIENTIFIQUE, priority 2015, published 2018).

Key:
U2OS cells = test: Cell viability assay (CellTiter-Blue), anti-proliferative activity; assay type: cell-based, human; conditions: 72 h treatment
Description: Cell viability assays were carried out by plating U2OS cells (2,000 cells per well) in 96-well plates.

DNA-Pt in U2OS cells = test: Screen of small molecule modulators of genome targeting using ACP staining as readout; assay type: cell-based, human; conditions: U2OS cells co-treated with small molecule and ACP, confocal microscopy
Description: Labeled DNA-Pt were analyzed by confocal microscopy.
[…], ACP, APPOA and CP were prepared in the laboratory as described in the synthesis section of the methods. Suberoylanilide hydroxamic acid (SAHA) was purchased from Sigma and cisplatin was purchased from Tocris.
Data were analyzed with ImagaJ.

histone H4 = test: Western blot of histone H4 acetylation; assay type: cell-based, human; conditions: U2OS cells
Description: Cells were washed once with PBS and lysed in lysis buffer (50 mM Tris-HCl, pH 7.5, 150 mM NaCl, 1 mM EDTA, 1% Triton X-100). For Western blot, samples were briefly sonicated followed by boiling in SDS sample buffer and separated by SDS-PAGE gels. Proteins were transferred to nitrocellulose membrane (GE Healthcare) and western blotting was performed following standard protocols. Western blots were detected by chemiluminescence (GE Healthcare Amersham ECL prime) using a Bio-Rad Molecular Imager ChemiDoc XRS+ system. The primary antibodies used for western blotting: H2AX (Millipore; #07-627), γH2AX [pSer139] (Novus Biologicals; NB100-384), histone H4 (Abcam; ab7311), acetyl-histone H4 (Lys16) (Cell Signaling; #8804), acetyl-histone H4 (Millipore; #06-866), PCNA (Santa Cruz Biotech; PC10), RAD18 (Cell Signaling; #21000), PARP (Cell Signaling; #9542), β-tubulin (Abcam; ab6046). Secondary antibodies used were: anti-rabbit IgG, HRP-linked (Cell Signaling; #7074), anti-mouse IgG, HRP-linked (Cell Signaling; #7076).

[1] = system: genomic DNA from U2OS cells; conditions: compared to equal amounts of DNA collected from CP-treated cells; 3 h treatment
Source text: Samples were air dried and visualized using a Bio-Rad Molecular Imager ChemiDoc XRS+ system.

[2] = system: 26-mer hairpin-forming DNA oligonucleotide containing a single 1,2-GG dinucleotide; conditions: 37° C., 18 h
Description: The reaction of hp with ACP was performed at 37° C. for 18 h. Unbound ACP and salts were removed using a Sephadex G-25 Medium size exclusion resin (GE Healthcare) on laboratory prepared spin columns (BioRad).

In the case of `N.N.[Cl][Pt][Cl]` [cisplatin], the “Anti-proliferative activity against U2OS cells” value (U2OS cells) is reported as “exhibited anti-proliferative properties”.
With `O=C(CCCCCCC(=O)Nc1ccccc1)NO` [SAHA, Suberoylanilide hydroxamic acid] the “Effect on ACP staining (DNA-Pt) by visual inspection” value (DNA-Pt in U2OS cells) was “led to the occurrence of foci of DNA-Pt” and the “Histone H4 acetylation” value (histone H4) was “induced histone hyperacetylation of histone H4”.
`Nc1ncn([C@@H]2O[C@H](CO)[C@@H](O)[C@H]2O)c(=O)n1` [Compound 5-Aza, 5-Azacytidine] was tested, and the “Effect on ACP staining (DNA-Pt) by visual inspection” value (DNA-Pt in U2OS cells) was “led to the occurrence of foci of DNA-Pt”.
For “2-aminomethylpyridine(dichloro)platinum(II) azide [ACP]”, the “Anti-proliferative activity against U2OS cells” value (U2OS cells) was “exhibited anti-proliferative properties”, the “Fluorescence of labeled genomic DNA (dot blot)” value [1] was “higher level of fluorescence” and the “Reactivity towards DNA and labeling by alkyne-containing tag in vitro” value [2] was “can chemoselectively cross react with DNA and be labeled by an alkyne-containing tag”.
